# Experimental data as given in patent US20020137780A1, “Differentiating agents for the treatment of inflammatory intestinal diseases” (priority 1995, published 2002).
# Experiments:
# IL-8 mRNA = assay: Inhibition of IL-1β stimulated IL-8 gene expression in Caco-2 cells (Northern blot); assay type: cell-based
# Experimental: Caco-2 cells (American Type Culture Collection, Rockville, Maryland) were plated at a density of 4×10^4 cells per cm^2 in 10 cm dishes containing Dulbecco's modified Eagle's medium (DMEM) with 10% fetal bovine serum and penicillin/streptomycin as described by Wu et al., J. Biol. Chem., 1992, 267:7863-7870 and Traber et al., Mol. Cell. Biol., 1992, 12:3614-3627. At days 5 (pre-confluent state) and 18 (post-confluent state) the cells were stimulated with complete medium containing 5 ng/ml of IL-1β (R and D Systems, Minneapolis, MN). Total RNA was isolated from these cells 2 and 4 hours after the addition of IL-1 containing medium as well as from a control cell population not treated with IL-1β in accordance with procedures described by Chomczynski, P. and Sacchi, N., Anal. Biochem., 1987, 162:156-159. Ten micrograms of RNA for each sample was electrophoretically separated, transferred to a nylon membrane, and UV crosslinked in accordance with procedures described by Traber et al., Am. J. Physiol., 1992, 262:G123-G130. A cDNA probe for IL-8 was prepared by RT-PCR of total RNA from Caco-2 cells stimulated with IL-1 for 2 hours. Random hexamers were used for reverse transcription of the RNA using reaction conditions similar to those described by Wu et al., Gastroenterology, 1993, 105:837-844. A 277 bp cDNA was amplified from the RT reaction by PCR using the 5′ primer IL-8(+103) and the 3′ primer IL-8(EX4), cloned using a TA-vector (Marchuk et al., Nuc. Acids Res., 1991, 19:1154), and labeled with ^32p using a Random Primers DNA labeling System (Gibco BRL, Gaithersburg, Md.). Hybridization of the Northern blots were performed using conditions as described by Huang et al., Mol. Endo., 1993, 7:1391-1398.
# Caco-2 cells [1] = settings: concentrations of 10-8 and 10-9; cited from earlier work
# [2] = tested on: murine erythroleukemia cells; settings: in vitro; cited from earlier work
# Caco-2 cells [3] = assay: Caco-2 cell toxicity / cell death during treatment with differentiating agents
# [4] = tested on: alkaline phosphatase mRNA; assay: Induction of alkaline phosphatase mRNA, marker for intestinal epithelial cell differentiation, in Caco-2 cells; assay type: cell-based
# [5] = orally or intraperitoneally, 26.5 mmole/kg; cited from earlier work
# [6] = e.g. six premature infants fed butyrates for 4 days at about 20 mmol/kg/day; cited from earlier work
# cell proliferation = settings: same dose; cited from earlier work
molecule,measurement,setting,value
"C=C1/C(=C\C=C2/CCC[C@]3(C)[C@@H]([C@H](C)CCCC(C)(C)O)CC[C@@H]23)C[C@@H](O)C[C@@H]1O [1,25-(OH)2D3, 1,25-dihydroxyvitamin D3]",steady state IL-8 mRNA expression,"IL-8 mRNA; concentrations of 10-8 and 10-9, IL-1β 5 ng/ml for 2 hours",decrease
same,Caco-2 cell proliferation,Caco-2 cells [1],inhibit
same,markers of intestinal epithelial differentiation,Caco-2 cells [1],induce
CCCC(=O)O [butyric acid],erythroid differentiation of erythroleukemia,[2],induced
CCCC(=O)OCC(O)CO (centres unmarked) [monobutyrin],erythroid differentiation of erythroleukemia,[2],induced
same,potency relative to butyric acid on a molar basis,[2],much less potent
CCCC(=O)[O-].[Na+] [sodium butyrate],concentration causing significant toxicity and cell death,Caco-2 cells [3]; Caco-2 cells,higher than 2.5 mM
same,tolerance by Caco-2 cells / cell death,Caco-2 cells [3]; sodium butyrate 0.1 to 2.5 mM,well-tolerated by Caco-2 cells without any evidence of cell death
same,concentration of maximal inhibition of IL-8 mRNA expression,"IL-8 mRNA; Caco-2 cells, IL-1β 5 ng/ml for 2 hours",2.5 mM
same,steady state levels of IL-8 mRNA,"IL-8 mRNA; sodium butyrate 0.1 to 2.5 mM, 3 days, IL-1β 5 ng/ml for 2 hours",dose dependent reduction
same,expression of IL-8 mRNA,IL-8 mRNA; sodium butyrate at concentrations higher than 2.5 mM,increased expression
same,mRNA for alkaline phosphatase,[4]; sodium butyrate 2.5 mM,induction
CCC(=O)[O-].[Na+] [sodium propionate],cell toxicity or death,"Caco-2 cells [3]; maximum concentration studied, 20 mM",did not lead to cell toxicity or death
same,IL-8 mRNA expression,"IL-8 mRNA; sodium propionate 0.1 to 20 mM, IL-1β 5 ng/ml for 2 hours",inhibited IL-8 mRNA expression in a dose dependent fashion
same,alkaline phosphatase mRNA expression,[4]; sodium propionate 0.1 to 20 mM,induction
CCCC(=O)OCC(COC(=O)CCC)OC(=O)CCC [tributyrin],toxicity in mice,[5],No toxicity
same,tolerability in humans,[6],well tolerated
same,effectiveness in inhibiting cell proliferation relative to sodium butyrate,cell proliferation,only as effective as sodium butyrate
same,"concentration giving identical biological response, relative to sodium butyrate","IL-8 mRNA; in vitro, differentiation and inhibition of IL-8 gene expression",one third
same,erythroid differentiation of erythroleukemia,[2],induced
same,potency relative to butyric acid on a molar basis,[2],3- to 4 fold
phenylacetate,Caco-2 cell toxicity,Caco-2 cells [3]; any concentration of phenylacetate studied (2.5 to 10 mM),no evidence of Caco-2 cell toxicity
same,IL-8 mRNA expression,"IL-8 mRNA; phenylacetate 2.5 to 10 mM, IL-1β 5 ng/ml for 2 hours",Dose dependent inhibition
